≈ marks a conversion by molar mass, not a printed value.
Legend:
A549 = test: Cytotoxicity against human A549 cells after 96 hrs by microplate reader analysis; format: functional, cell-based; conditions: A549, 96 h
HT-29 = test: Cytotoxicity against human HT-29 cells after 96 hrs by microplate reader analysis; format: functional, cell-based; conditions: HT-29, 96 h

## CC[C@H](C)[C@@H]1NC(=O)[C@@H](NC(=O)[C@@H](CC(C)C)N(C)C(=O)[C@@H]2CCCN2C(=O)[C@H](C)OC(C)=O)[C@H](C)OC(=O)[C@H](Cc2ccc(OC)cc2)N(C)C(=O)[C@@H]2CCCN2C(=O)[C@H](CC(C)C)NC(=O)[C@@H](C)C(=O)[C@H](C(C)C)OC(=O)C[C@@H]1O [NORDIDEMNIN B]
A549
  IC50: 7 ng/mL (≈ 6.06 nM)
HT-29
  IC50: 0.01 µg/mL (≈ 8.66 nM)

Reference: ChEMBL document CHEMBL1921793, “Bacterial production of the tunicate-derived antitumor cyclic depsipeptide didemnin B” (J Nat Prod, 2011)
